Test results taken from patent publication US5104869A, “Renin inhibitors” (American Cyanamid Company, priority 1990, dated 1992).

Molecular target: T1, human kidney renin (Homo sapiens, UniProt P00797)
T1 construct: Human renin was prepared from human kidney; from tissue; host or cells: human kidney
T1 sequence (P00797 67-406): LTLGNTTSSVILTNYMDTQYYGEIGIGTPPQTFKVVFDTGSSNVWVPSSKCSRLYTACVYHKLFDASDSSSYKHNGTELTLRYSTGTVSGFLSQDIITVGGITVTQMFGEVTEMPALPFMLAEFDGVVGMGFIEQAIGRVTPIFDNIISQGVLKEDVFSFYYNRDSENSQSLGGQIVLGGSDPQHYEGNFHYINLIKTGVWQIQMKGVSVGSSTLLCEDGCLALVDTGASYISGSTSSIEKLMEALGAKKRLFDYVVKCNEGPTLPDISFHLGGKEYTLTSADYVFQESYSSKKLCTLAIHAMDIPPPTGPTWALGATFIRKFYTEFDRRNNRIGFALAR
Test: Radioimmunoassay Screen for Renin Inhibitors (in vitro angiotensin I generation, quantitated by radioimmunoassay)
Assay type: biochemical
Conditions: purified human plasma angiotensinogen, pH 6.0, one hour at 37° C., read-out: Renin Inhibiton IC50
Experimental: The in vitro method for the screening of anti-renin compounds involves, first, angiotensin I generation, and second, the quantitation of the angiotensin I produced by radioimmunoassay.
The incubation medium consisted of 20 μl of purified human plasma angiotensinogen (1); 10 μl of human kidney renin (2); 5 μl of phenylmethylsulfonyl fluoride; 10 μl of disodium EDTA (10 mM); 10 μl of antirenin compound (5×10^-3, 5×10^-4, 5×10^-5) in dimethylformamide, or ethanol and a suitable amount of maleate buffer (77 mM, pH 6.0) to make a final volume of 500 μl. The reaction mixture was incubated for one hour at 37° C. and the enzymatic reaction was stopped by placing the tube in ice-cold water. The angiotensin I generated during the incubation was measured by a radioimmunoassay plasma renin activity kit (Clinical Assays, Inc.).
The incubation medium consisted of either 100 μl aliquots of the above reaction mixture or a standard amount of angiotensin I; 1000 μl of phosphate buffer (100 mM, pH 7.6) and 100 μl of (^125 I)angiotensinin a gamma-coat, tube. After three hours of incubation at room temperature, the tubes were decanted, and the radioactivity of each tube was determined in a gamma counter. Duplicate determinations were performed for each incubation. The results were expressed in ng of angiotensin I generated per ml of generation medium per hour of incubation (ng/AI/ml/hr).
(1) The human plasma angiotensinogen derived from the blood of a person receiving oral contraceptive pills was purified by chromatography on a pepstatinaminohexyl-agarose column.
(2) Human renin was prepared from human kidney.

| IC50 [nM] | Structure (SMILES) |
| --- | --- |
| 2800 | COc1cc(C[C@H](CC(=O)N2CCOCC2)C(=O)N[C@@H](Cc2c[nH]cn2)C(=O)N[C@@H](CC(C)C)[C@@H](O)c2nccs2)cc(OC)c1OC |
| 210 | CC(C)C[C@H](NC(=O)[C@@H](CC(=O)NCCCn1ccnc1)Cc1cccc2ccccc12)C(=O)N[C@@H](CC(C)C)[C@@H](O)c1nccs1 |
| 440 | CC(C)C[C@H](NC(=O)[C@@H](CC(=O)N1CCN(C)CC1)Cc1cccc2ccccc12)C(=O)N[C@@H](CC(C)C)[C@@H](O)c1nccs1 |
| 410 | COC(CNC(=O)C[C@@H](Cc1cccc2ccccc12)C(=O)N[C@@H](CC(C)C)C(=O)N[C@@H](CC(C)C)[C@@H](O)c1nccs1)OC |
| 260 | O=C(N[C@@H](Cc1cnc[nH]1)C(=O)N[C@@H](CC1CCCCC1)[C@@H](O)c1ccccn1)[C@@H](CC(=O)N1CCOCC1)Cc1cccc2ccccc12 |
| 160 | CC(C)C[C@H](NC(=O)[C@@H](CC(=O)OC(C)(C)C)Cc1cccc2ccccc12)C(=O)N[C@@H](CC1CCCCC1)[C@@H](O)c1ccccn1 |
| 77 | CC(C)C[C@H](NC(=O)[C@@H](CC(=O)N1CCOCC1)Cc1cccc2ccccc12)C(=O)N[C@@H](CC1CCCCC1)[C@@H](O)c1ccccn1 |
| 550 | CC(C)C[C@H](NC(=O)[C@@H](CC(=O)O)Cc1cccc2ccccc12)C(=O)N[C@@H](CC(C)C)[C@@H](O)c1nccs1 |
| 400 | CC(C)C[C@H](NC(=O)[C@@H](CC(=O)NCCN1CCOCC1)Cc1cccc2ccccc12)C(=O)N[C@@H](CC(C)C)[C@@H](O)c1nccs1 |
| 440 | CC(C)C[C@H](NC(=O)[C@@H](CC(=O)NCCCN1CCOCC1)Cc1cccc2ccccc12)C(=O)N[C@@H](CC(C)C)[C@@H](O)c1nccs1 |
| 33 | CC(C)C[C@H](NC(=O)[C@@H](CC(=O)NCCc1cccn1C)Cc1cccc2ccccc12)C(=O)N[C@@H](CC(C)C)[C@@H](O)c1nccs1 |
| 170 | CC(C)C[C@H](NC(=O)[C@@H](CC(=O)NCc1cccnc1)Cc1cccc2ccccc12)C(=O)N[C@@H](CC(C)C)[C@@H](O)c1nccs1 |
| 120 | CC(C)C[C@H](NC(=O)[C@@H](CC(=O)NCc1ccccn1)Cc1cccc2ccccc12)C(=O)N[C@@H](CC(C)C)[C@@H](O)c1nccs1 |
| 74 | CC(C)C[C@H](NC(=O)[C@@H](CC(=O)NCCCN1CCCC1=O)Cc1cccc2ccccc12)C(=O)N[C@@H](CC(C)C)[C@@H](O)c1nccs1 |
| 44 | CC(C)C[C@H](NC(=O)[C@@H](CC(=O)NCCOc1ccccn1)Cc1cccc2ccccc12)C(=O)N[C@@H](CC(C)C)[C@@H](O)c1nccs1 |
| 93 | CC(C)C[C@H](NC(=O)[C@@H](CC(=O)NCCCCn1ccnc1)Cc1cccc2ccccc12)C(=O)N[C@@H](CC(C)C)[C@@H](O)c1nccs1 |

| IC50 [nM] | Structure (SMILES) |
| --- | --- |
| 3800 | CC(C)C[C@H](NC(=O)[C@@H](CC(=O)O)Cc1cccc2ccccc12)C(=O)N[C@@H](CC1CCCCC1)[C@@H](O)c1ccccn1 |
| 110 | CC(C)C[C@H](NC(=O)[C@@H](CC(=O)NCCc1ccccn1)Cc1cccc2ccccc12)C(=O)N[C@@H](CC(C)C)[C@@H](O)c1nccs1 |
| 650 | CC(C)C[C@H](NC(=O)[C@@H](CC(=O)NCCN1CCCCC1)Cc1cccc2ccccc12)C(=O)N[C@@H](CC(C)C)[C@@H](O)c1nccs1 |
| 740 | CC(C)C[C@H](NC(=O)[C@@H](CC(=O)NCCN1CCCC1)Cc1cccc2ccccc12)C(=O)N[C@@H](CC(C)C)[C@@H](O)c1nccs1 |
| 7100 | CC(C)(C)NC(=O)C[C@@H](Cc1cccc2ccccc12)C(=O)N[C@@H](Cc1cnc[nH]1)C(=O)N[C@@H](CC1CCCCC1)[C@@H](O)c1nccs1 |
| 170 | CC(C)C[C@H](NC(=O)[C@@H](CC(=O)NCCOc1ccccn1)Cc1cccc2ccccc12)C(=O)N[C@@H](CC1CCCCC1)[C@@H](O)c1ccccn1 |
| 130 | CC(C)C[C@H](NC(=O)[C@@H](CC(=O)NCCCN1CCCC1=O)Cc1ccccc1)C(=O)N[C@@H](CC1CCCCC1)[C@@H](O)c1ccccn1 |
| 6000 | COc1cc(C[C@H](CC(=O)O)C(=O)N[C@@H](CC(C)C)C(=O)N[C@@H](CC(C)C)[C@@H](O)c2nccs2)cc(OC)c1OC |
| 4800 | CC(C)(C)OC(=O)C[C@@H](Cc1cccc2ccccc12)C(=O)N[C@@H](Cc1cnc[nH]1)C(=O)N[C@@H](CC1CCCCC1)[C@@H](O)c1ccccn1 |
| 300 | CC(C)(C)OC(=O)C[C@@H](Cc1cccc2ccccc12)C(=O)N[C@@H](Cc1cnc[nH]1)C(=O)N[C@@H](CC1CCCCC1)[C@@H](O)c1nccs1 |
| 35 | O=C(N[C@@H](Cc1cnc[nH]1)C(=O)N[C@@H](CC1CCCCC1)[C@@H](O)c1nccs1)[C@@H](CC(=O)N1CCOCC1)Cc1cccc2ccccc12 |
| 42000 | CC(C)C[C@H](NC(=O)[C@@H](CC(=O)N1CCOCC1)Cc1ccccc1)C(=O)N[C@@H](CC(C)C)[C@@H](O)c1nccs1 |
| 6500 | CC(C)C[C@H](NC(=O)[C@@H](CC(=O)OC(C)(C)C)Cc1ccccc1)C(=O)N[C@@H](CC(C)C)[C@@H](O)c1nccs1 |
| 160 | CC(C)C[C@H](NC(=O)[C@@H](CC(=O)OC(C)(C)C)Cc1ccccc1)C(=O)N[C@@H](CC1CCCCC1)[C@@H](O)c1nccs1 |
| 580 | O=C(C[C@@H](Cc1cccc2ccccc12)C(=O)N[C@@H](Cc1cnc[nH]1)C(=O)N[C@@H](CC1CCCCC1)[C@@H](O)c1nccs1)NCCOc1ccccn1 |
